The data set has as its system Homo sapiens. As to the kind of experiment: Drug level in human serum at 10 mg/kg. The following applies: in vivo. On the set-up: dose 10 mg/kg. The data set is classed as ADME, organism-based.

Drawing on ChEMBL document CHEMBL1275575, “Susceptibility of Mycobacterium bovis BCG vaccine strains to antituberculous antibiotics” (Antimicrob Agents Chemother, 2009), this text covers Drug uptake for one compound.

Compound `NNC(=O)c1ccncc1` [ISONIAZID] yielded a Drug uptake of 0.4 µg/mL.
